The values that follow come from article PMC4747102 (European journal of medicinal chemistry, 2015).

In assay [1] the test system is MDA-MB-231 (triple negative breast cancer) cells. The assay is classed as cell-based, human.
The subject of assay [2] is MCF-7 (ER+ breast cancer) cells. Kind of assay: cells. Format: cell-based, human.

`CC(C)CC(c1cc(O)c2c(c1O)C(=O)c1ccccc1C2=O)N(CCCl)CCCl` (stereo not shown) [5f, 2-(1-(Bis(2-chloroethyl)amino)-3-methylbutyl)-1,4-dihydroxyanthracene-9,10-dione]: the “fold stronger than compound 5b” value in assay [1] is recorded as “approximately 70 fold”. `O=C1c2ccccc2C(=O)c2c(O)c(C(c3ccccc3F)N(CCCl)CCCl)cc(O)c21` (stereo not shown) [5i, 2-((Bis(2-chloroethyl)amino) (2-fluorophenyl)methyl)-1,4-dihydroxyanthracene-9,10-dione]: the “fold increase in inhibitory activity compared to chlorambucil” value in assay [1] is reported as “ca. 900 fold”. As for `O=C1c2ccccc2C(=O)c2c(O)c(C(c3ccc(F)cc3)N(CCCl)CCCl)cc(O)c21` (stereo not shown) [5k, 2-((Bis(2-chloroethyl)amino)(4-fluorophenyl)methyl)-1,4-dihydroxyanthracene-9,10-dione], in assay [2], the “times more potent than chlorambucil” value is “over 100 times”. On to `COc1cccc2c1C(=O)c1c(O)c3c(c(O)c1C2=O)C[C@@](O)(C(=O)CO)C[C@@H]3O[C@H]1C[C@H](N)[C@H](O)[C@H](C)O1` [Doxorubicin, reference compound], for which, in assay [2] (Homo sapiens, MCF7, 120 h, read-out: IC50 MCF-7), the IC50 was 0.294 nM.
